# Results from the supplement of paper PMC10307832.
# Experiments:
# Assay in all cases: relative viability (nuclei count vs DMSO), 5 days (fraction); higher = more cells survive
# NCI-H1395 = system: NCI-H1395
# How it was run: (§1)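 Cells from lung cancer lines were seeded into 1536-well plates and, one day later, dosed by pin tool. Treatments were either a single drug or a fixed dose of an anchor drug with five library-drug doses (not always all listed) in √10 steps. After 5 days, nuclei were stained in a one-step fixation (final 0.05% Triton X-100, 1% formaldehyde, 1 ug/ml Hoechst) and counted on 4× images, and relative viability is the treated-to-vehicle nuclei ratio, as the median of duplicate plates.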
# COR-L 105 = system: COR-L 105
# How it was run: as §1
# COR-L23 = system: COR-L23
# How it was run: as §1
# NCI-H1793 = system: NCI-H1793
# How it was run: as §1
# HARA = system: HARA
# How it was run: as §1
# NCI-H2228 = system: NCI-H2228
# How it was run: as §1
# UMC-11 = system: UMC-11
# How it was run: as §1
# NCI-H2347 = system: NCI-H2347
# How it was run: as §1
# HOP-62 = system: HOP-62
# How it was run: as §1
# HCC-15 = system: HCC-15
# How it was run: as §1
# NCI-H2009 = system: NCI-H2009
# How it was run: as §1
# NCI-H1734 = system: NCI-H1734
# How it was run: as §1
# NCI-H1755 = system: NCI-H1755
# How it was run: as §1
# SK-MES-1 = system: SK-MES-1
# How it was run: as §1
# NCI-H838 = system: NCI-H838
# How it was run: as §1
# NCI-H1993 = system: NCI-H1993
# How it was run: as §1
# NCI-H1355 = system: NCI-H1355
# How it was run: as §1
# NCI-H647 = system: NCI-H647
# How it was run: as §1
# NCI-H358 = system: NCI-H358
# How it was run: as §1
# NCI-H2170 = system: NCI-H2170
# How it was run: as §1
structure (smiles),measurement,setting,value
Nc1ccn([C@@H]2O[C@H](CO)[C@@H](O)[C@@H]2O)c(=O)n1 [Cytarabine] + COc1cc2c(Oc3ccc(NC(=O)C4(C(=O)Nc5ccc(F)cc5)CC4)cc3F)ccnc2cc1OCCCN1CCOCC1 [Foretinib] (partner 0.25 µM),relative viability,NCI-H1395; first compound 0.005 µM,0.917
same,relative viability,NCI-H1395; first compound 0.01581 µM,0.757
same,relative viability,NCI-H1395; first compound 0.05 µM,0.548
same,relative viability,NCI-H1395; first compound 0.1581 µM,0.492
same,relative viability,NCI-H1395; first compound 0.5 µM,0.413
same,relative viability,COR-L 105; first compound 0.005 µM,0.972
same,relative viability,COR-L 105; first compound 0.01581 µM,1.29
same,relative viability,COR-L 105; first compound 0.05 µM,0.825
same,relative viability,COR-L 105; first compound 0.1581 µM,0.812
same,relative viability,COR-L 105; first compound 0.5 µM,0.438
same,relative viability,COR-L23; first compound 0.005 µM,0.958
same,relative viability,COR-L23; first compound 0.01581 µM,0.966
same,relative viability,COR-L23; first compound 0.05 µM,0.612
same,relative viability,COR-L23; first compound 0.1581 µM,0.206
same,relative viability,COR-L23; first compound 0.5 µM,0.137
same,relative viability,NCI-H1793; first compound 0.005 µM,0.812
same,relative viability,NCI-H1793; first compound 0.01581 µM,0.684
same,relative viability,NCI-H1793; first compound 0.05 µM,0.683
same,relative viability,NCI-H1793; first compound 0.1581 µM,0.545
same,relative viability,NCI-H1793; first compound 0.5 µM,0.494
same,relative viability,HARA; first compound 0.005 µM,0.753
same,relative viability,HARA; first compound 0.01581 µM,0.496
same,relative viability,HARA; first compound 0.05 µM,0.363
same,relative viability,HARA; first compound 0.1581 µM,0.107
same,relative viability,HARA; first compound 0.5 µM,0.123
same,relative viability,NCI-H2228; first compound 0.005 µM,0.479
same,relative viability,NCI-H2228; first compound 0.01581 µM,0.563
same,relative viability,NCI-H2228; first compound 0.05 µM,0.285
same,relative viability,NCI-H2228; first compound 0.1581 µM,0.173
same,relative viability,NCI-H2228; first compound 0.5 µM,0.166
same,relative viability,UMC-11; first compound 0.005 µM,0.653
same,relative viability,UMC-11; first compound 0.01581 µM,0.63
same,relative viability,UMC-11; first compound 0.05 µM,0.45
same,relative viability,UMC-11; first compound 0.1581 µM,0.349
same,relative viability,UMC-11; first compound 0.5 µM,0.261
same,relative viability,NCI-H2347; first compound 0.005 µM,1.32
same,relative viability,NCI-H2347; first compound 0.01581 µM,1.43
same,relative viability,NCI-H2347; first compound 0.05 µM,0.806
same,relative viability,NCI-H2347; first compound 0.1581 µM,0.463
same,relative viability,NCI-H2347; first compound 0.5 µM,0.343
same,relative viability,HOP-62; first compound 0.005 µM,0.904
same,relative viability,HOP-62; first compound 0.01581 µM,0.875
same,relative viability,HOP-62; first compound 0.05 µM,0.45
same,relative viability,HOP-62; first compound 0.1581 µM,0.137
same,relative viability,HOP-62; first compound 0.5 µM,0.142
same,relative viability,HCC-15; first compound 0.005 µM,0.905
same,relative viability,HCC-15; first compound 0.01581 µM,1.05
same,relative viability,HCC-15; first compound 0.05 µM,0.996
same,relative viability,HCC-15; first compound 0.1581 µM,0.77
same,relative viability,HCC-15; first compound 0.5 µM,0.706
same,relative viability,NCI-H2009; first compound 0.005 µM,1.23
same,relative viability,NCI-H2009; first compound 0.01581 µM,1.22
same,relative viability,NCI-H2009; first compound 0.05 µM,1.19
same,relative viability,NCI-H2009; first compound 0.1581 µM,0.981
same,relative viability,NCI-H2009; first compound 0.5 µM,0.503
same,relative viability,NCI-H1734; first compound 0.005 µM,0.553
same,relative viability,NCI-H1734; first compound 0.01581 µM,0.373
same,relative viability,NCI-H1734; first compound 0.05 µM,0.205
same,relative viability,NCI-H1734; first compound 0.1581 µM,0.164
same,relative viability,NCI-H1734; first compound 0.5 µM,0.124
same,relative viability,NCI-H1755; first compound 0.005 µM,0.962
same,relative viability,NCI-H1755; first compound 0.01581 µM,0.886
same,relative viability,NCI-H1755; first compound 0.05 µM,0.736
same,relative viability,NCI-H1755; first compound 0.1581 µM,0.387
same,relative viability,NCI-H1755; first compound 0.5 µM,0.356
same,relative viability,SK-MES-1; first compound 0.005 µM,0.763
same,relative viability,SK-MES-1; first compound 0.01581 µM,0.704
same,relative viability,SK-MES-1; first compound 0.05 µM,0.457
same,relative viability,SK-MES-1; first compound 0.1581 µM,0.336
same,relative viability,SK-MES-1; first compound 0.5 µM,0.304
same,relative viability,NCI-H838; first compound 0.005 µM,1.13
same,relative viability,NCI-H838; first compound 0.01581 µM,1.08
same,relative viability,NCI-H838; first compound 0.05 µM,0.939
same,relative viability,NCI-H838; first compound 0.1581 µM,0.486
same,relative viability,NCI-H838; first compound 0.5 µM,0.301
same,relative viability,NCI-H1993; first compound 0.005 µM,0.843
same,relative viability,NCI-H1993; first compound 0.01581 µM,0.889
same,relative viability,NCI-H1993; first compound 0.05 µM,0.726
same,relative viability,NCI-H1993; first compound 0.1581 µM,0.485
same,relative viability,NCI-H1993; first compound 0.5 µM,0.468
same,relative viability,NCI-H1355; first compound 0.005 µM,0.976
same,relative viability,NCI-H1355; first compound 0.01581 µM,0.912
same,relative viability,NCI-H1355; first compound 0.05 µM,0.911
same,relative viability,NCI-H1355; first compound 0.1581 µM,0.501
same,relative viability,NCI-H1355; first compound 0.5 µM,0.444
same,relative viability,NCI-H647; first compound 0.005 µM,0.625
same,relative viability,NCI-H647; first compound 0.01581 µM,0.617
same,relative viability,NCI-H647; first compound 0.05 µM,0.282
same,relative viability,NCI-H647; first compound 0.1581 µM,0.109
same,relative viability,NCI-H647; first compound 0.5 µM,0.11
same,relative viability,NCI-H358; first compound 0.005 µM,0.612
same,relative viability,NCI-H358; first compound 0.01581 µM,0.603
same,relative viability,NCI-H358; first compound 0.05 µM,0.3
same,relative viability,NCI-H358; first compound 0.1581 µM,0.131
same,relative viability,NCI-H358; first compound 0.5 µM,0.126
same,relative viability,NCI-H2170; first compound 0.005 µM,0.736
same,relative viability,NCI-H2170; first compound 0.01581 µM,0.458
same,relative viability,NCI-H2170; first compound 0.05 µM,0.672
same,relative viability,NCI-H2170; first compound 0.1581 µM,0.515
same,relative viability,NCI-H2170; first compound 0.5 µM,0.569
